Source: ChEMBL document CHEMBL1201862, “PubChem BioAssay data set” (2004)
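Values below derive from 48-hour exposures of cells grown in 96-well plates, with endpoints linearly interpolated between the two concentrations bracketing the appropriate inhibition level. GI50 is the concentration that inhibits growth by half.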 Active and inactive are the calls of the source. Cut-off read from the data, not from the text of the source: active = GI50 up to about 1.1 µM and inactive = higher.

Assays:
Assay in all cases: growth of human tumour cells (NCI), 48 h
ACHN = test system: ACHN
DU-145 = test system: DU-145
HCT-116 = test system: HCT-116
IGROV-1 = test system: IGROV-1
LOX IMVI = test system: LOX IMVI
MCF7 = test system: MCF7
MDA-MB-435 = test system: MDA-MB-435
Malme-3M = test system: Malme-3M
NCI-H460 = test system: NCI-H460
NCI-H522 = test system: NCI-H522
NCI/ADR-RES = test system: NCI/ADR-RES
PC-3 = test system: PC-3
SK-MEL-5 = test system: SK-MEL-5
SK-OV-3 = test system: SK-OV-3
SNB-75 = test system: SNB-75
T47D = test system: T47D
UACC-62 = test system: UACC-62
UO-31 = test system: UO-31
A498 = test system: A498
RPMI-8226 = test system: RPMI-8226

SMILES | GI50 (ACHN) | GI50 (DU-145) | GI50 (HCT-116) | GI50 (IGROV-1) | GI50 (LOX IMVI) | GI50 (MCF7) | GI50 (MDA-MB-435) | GI50 (Malme-3M) | GI50 (NCI-H460) | GI50 (NCI-H522) | GI50 (NCI/ADR-RES) | GI50 (PC-3) | GI50 (SK-MEL-5) | GI50 (SK-OV-3) | GI50 (SNB-75) | GI50 (T47D) | GI50 (UACC-62) | GI50 (UO-31) | GI50 (A498) | GI50 (RPMI-8226)
CNc1nc(=O)c(C#N)c(-c2ccc(C)cc2)s1 | > 100 µM (inactive) | > 100 µM (inactive) | > 100 µM (inactive) | > 100 µM (inactive) | > 100 µM (inactive) | > 100 µM (inactive) | > 100 µM (inactive) | > 100 µM (inactive) | > 100 µM (inactive) | 59.3 µM (inactive) | > 100 µM (inactive) | > 100 µM (inactive) | > 100 µM (inactive) | > 100 µM (inactive) | > 100 µM (inactive) | > 100 µM (inactive) | > 100 µM (inactive) | > 100 µM (inactive) |  | 
O=C(OCc1ccccc1)N1CCN(C(=O)OCc2ccccc2)CCN(C(=O)OCc2ccccc2)CCN(C(=O)OCc2ccccc2)CCN(C(=O)OCc2ccccc2)CC1 | > 100 µM (inactive) | > 100 µM (inactive) | > 100 µM (inactive) |  | 80 µM (inactive) | > 100 µM (inactive) | > 100 µM (inactive) | 24.4 µM (inactive) | > 100 µM (inactive) | 68.2 µM (inactive) | 79.4 µM (inactive) | > 100 µM (inactive) | 18.4 µM (inactive) | > 100 µM (inactive) | 30.9 µM (inactive) | > 100 µM (inactive) | > 100 µM (inactive) | 22.8 µM (inactive) | > 100 µM (inactive) | 
Cc1ccc(S(=O)(=O)N(CC(O)COc2ccccc2)c2c(F)c(F)cc(F)c2F)cc1 (stereo unspecified) | 21.2 µM (inactive) | 40.8 µM (inactive) | 37 µM (inactive) |  | 16.6 µM (inactive) | 16.4 µM (inactive) | 16.9 µM (inactive) | 23.1 µM (inactive) | 16.7 µM (inactive) |  | 18.1 µM (inactive) | 18.3 µM (inactive) | 15.9 µM (inactive) | 19.4 µM (inactive) | 20.5 µM (inactive) | 19.7 µM (inactive) | 16.6 µM (inactive) | 20.4 µM (inactive) | 20.3 µM (inactive) | 18.7 µM (inactive)
CCOC(=O)c1sc2nc(SC)nc(Nc3ccc(OC)c(OC)c3)c2c1N | 13.2 µM (inactive) | 20.2 µM (inactive) | 7.05 µM (inactive) | > 100 µM (inactive) | > 100 µM (inactive) | 3.95 µM (inactive) | 34.3 µM (inactive) | 23.2 µM (inactive) | < 0.01 µM (active) | 5.79 µM (inactive) | 3.48 µM (inactive) | 63.8 µM (inactive) | 3.61 µM (inactive) | 12.9 µM (inactive) |  | 6.08 µM (inactive) | 4.74 µM (inactive) | 22.4 µM (inactive) | 4.76 µM (inactive) | 1.84 µM (inactive)
CC(C)NC(=O)OCc1c2c(n(C)c1COC(=O)NC(C)C)-c1cc(Cl)c(Cl)cc1CC2 | 34.2 µM (inactive) | 70.8 µM (inactive) | 24.8 µM (inactive) | 20.3 µM (inactive) | 38.3 µM (inactive) | 15.8 µM (inactive) | 33.7 µM (inactive) | 49.3 µM (inactive) | 34.4 µM (inactive) |  | 33.4 µM (inactive) | 32.9 µM (inactive) | 42.7 µM (inactive) | 33.7 µM (inactive) | 29.4 µM (inactive) | 22.6 µM (inactive) | 43.9 µM (inactive) | 27 µM (inactive) | 6.37 µM (inactive) | 23.4 µM (inactive)
N#Cc1ccc(/C=[N+](/C=c2ccc(=C=[N-])cc2)N(CCO)C2=NCCN2)cc1 | > 100 µM (inactive) | > 100 µM (inactive) | > 100 µM (inactive) | > 100 µM (inactive) | > 100 µM (inactive) | > 100 µM (inactive) | > 100 µM (inactive) | > 100 µM (inactive) | > 100 µM (inactive) | 71 µM (inactive) | > 100 µM (inactive) | > 100 µM (inactive) | > 100 µM (inactive) | > 100 µM (inactive) | > 100 µM (inactive) | > 100 µM (inactive) | > 100 µM (inactive) | > 100 µM (inactive) | > 100 µM (inactive) | 
O=C(c1cccs1)N1CCCN(C(=O)c2cccs2)C1=S | > 100 µM (inactive) | > 100 µM (inactive) | > 100 µM (inactive) | > 100 µM (inactive) | > 100 µM (inactive) | > 100 µM (inactive) | > 100 µM (inactive) | > 100 µM (inactive) |  |  | > 100 µM (inactive) | > 100 µM (inactive) | > 100 µM (inactive) | > 100 µM (inactive) |  | > 100 µM (inactive) | > 100 µM (inactive) | > 100 µM (inactive) | > 100 µM (inactive) | > 100 µM (inactive)
Cc1ccc([S+]([O-])c2cccs2)cc1 (stereo unspecified) | > 100 µM (inactive) | > 100 µM (inactive) | > 100 µM (inactive) |  |  | > 100 µM (inactive) | > 100 µM (inactive) | > 100 µM (inactive) | > 100 µM (inactive) |  | > 100 µM (inactive) | > 100 µM (inactive) |  |  |  | > 100 µM (inactive) |  | > 100 µM (inactive) | 38.1 µM (inactive) | > 100 µM (inactive)
CC(=O)O[C@H]1C(=O)[C@@]2(C)C(C(OC(=O)c3ccccc3)[C@]3(O)CC(OC(=O)C(O)C(NC(=O)c4ccccc4)c4cccc(Cl)c4)C(C)=C1C3(C)C)[C@]1(OC(C)=O)CO[C@@H]1C[C@@H]2O (stereo partly specified) | > 10 µM (inactive) | 3.57 µM (inactive) | 2.88 µM (inactive) | 3.88 µM (inactive) | 4.29 µM (inactive) | 3.06 µM (inactive) | 1.55 µM (inactive) | > 10 µM (inactive) | 5.28 µM (inactive) | 3.18 µM (inactive) | > 10 µM (inactive) | 7.11 µM (inactive) | 5.94 µM (inactive) | > 10 µM (inactive) | 2.62 µM (inactive) | 8.15 µM (inactive) | 2.33 µM (inactive) |  |  | 2.21 µM (inactive)
Cn1cc(-c2ccc(CCOC3CCCCO3)cc2)c2c(C#N)cccc21 (stereo unspecified) |  | > 100 µM (inactive) | 43.3 µM (inactive) | > 100 µM (inactive) | 41.9 µM (inactive) | 38.3 µM (inactive) | 36.9 µM (inactive) | 83 µM (inactive) | 42.6 µM (inactive) | > 100 µM (inactive) | 30.9 µM (inactive) | 27.2 µM (inactive) | > 100 µM (inactive) | > 100 µM (inactive) |  | 21.3 µM (inactive) | 44.6 µM (inactive) | 28 µM (inactive) | 61.2 µM (inactive) | 41.9 µM (inactive)
COc1cccc2c(NNc3ccccc3)c3ccc([N+](=O)[O-])cc3nc12 | 20.2 µM (inactive) | 73.6 µM (inactive) | 22.8 µM (inactive) | 21.7 µM (inactive) | 13.6 µM (inactive) | 26.4 µM (inactive) | 18.1 µM (inactive) | 54.3 µM (inactive) | 32.3 µM (inactive) | 24.7 µM (inactive) | 41.5 µM (inactive) | 14.7 µM (inactive) | 37.6 µM (inactive) | 53.6 µM (inactive) |  | 36.4 µM (inactive) | 6.41 µM (inactive) | 8.67 µM (inactive) | 43.5 µM (inactive) | 7.1 µM (inactive)
O=C(Oc1cccc(Cl)c1)c1cc2cc(CCl)ccc2oc1=O | 17.6 µM (inactive) | 22.8 µM (inactive) | 61.5 µM (inactive) | 39.2 µM (inactive) | 40.6 µM (inactive) | 30.3 µM (inactive) | 30.4 µM (inactive) | 14 µM (inactive) | 37.8 µM (inactive) | 15.3 µM (inactive) | > 100 µM (inactive) | 26.1 µM (inactive) | 16.9 µM (inactive) | > 100 µM (inactive) | 31.4 µM (inactive) | 31.5 µM (inactive) | 14.3 µM (inactive) | 32.8 µM (inactive) |  | 61.7 µM (inactive)
O=c1[nH]ncc2[nH]c3c4ccccc4ccc3c12 | 27.9 µM (inactive) | > 100 µM (inactive) | 42.2 µM (inactive) |  | 25.4 µM (inactive) | 18.4 µM (inactive) | 18 µM (inactive) | 19.6 µM (inactive) | 32.1 µM (inactive) | 19 µM (inactive) | > 100 µM (inactive) | 39.2 µM (inactive) | 28.1 µM (inactive) | 31.1 µM (inactive) |  | 52.8 µM (inactive) |  | 25.5 µM (inactive) |  | 38.5 µM (inactive)
CC1(C)C2CCC1(C)C(NC(=O)COCCOCC(N)=O)C2 (stereo unspecified) | > 100 µM (inactive) | > 100 µM (inactive) | > 100 µM (inactive) | > 100 µM (inactive) |  | > 100 µM (inactive) | > 100 µM (inactive) | > 100 µM (inactive) | > 100 µM (inactive) | > 100 µM (inactive) |  | > 100 µM (inactive) | > 100 µM (inactive) | > 100 µM (inactive) | > 100 µM (inactive) | > 100 µM (inactive) | > 100 µM (inactive) | > 100 µM (inactive) | > 100 µM (inactive) | 
CC(/C=C/C(O)=C1/C(=O)CNC1=O)=C\[C@@H](C)[C@H]1O[C@@]2(C)O[C@H](C(=O)[C@@H]3O[C@@]32C)[C@@H]1C | 19.6 µM (inactive) | 18.9 µM (inactive) | 18.9 µM (inactive) | 20.4 µM (inactive) | 14.5 µM (inactive) | 19.7 µM (inactive) | 28.2 µM (inactive) | 18.1 µM (inactive) |  |  | 26.6 µM (inactive) | 14 µM (inactive) | 17.5 µM (inactive) | 21.5 µM (inactive) | 34.8 µM (inactive) | 15.1 µM (inactive) | 16.7 µM (inactive) | 13.8 µM (inactive) | 14.3 µM (inactive) | 12.2 µM (inactive)
